These results are taken from patent US6020370A, “Bridged cyclic amino acids as pharmaceutical agents” (Warner-Lambert Company, priority 1998, dated 2000).

The target in the experiment is T1, α2 δ subunit of a calcium channel (Sus scrofa, UniProt A0A287BIN3).
T1 construct: derived from porcine brain tissue; from tissue; host or cells: porcine brain tissue
As to the kind of experiment: Radioligand binding assay using [^3 H]gabapentin and the α2 δ subunit derived from porcine brain tissue. The conditions noted are these: Table 1, [^3 H]gabapentin.

T1 sequence (A0A287BIN3 entry or part of it): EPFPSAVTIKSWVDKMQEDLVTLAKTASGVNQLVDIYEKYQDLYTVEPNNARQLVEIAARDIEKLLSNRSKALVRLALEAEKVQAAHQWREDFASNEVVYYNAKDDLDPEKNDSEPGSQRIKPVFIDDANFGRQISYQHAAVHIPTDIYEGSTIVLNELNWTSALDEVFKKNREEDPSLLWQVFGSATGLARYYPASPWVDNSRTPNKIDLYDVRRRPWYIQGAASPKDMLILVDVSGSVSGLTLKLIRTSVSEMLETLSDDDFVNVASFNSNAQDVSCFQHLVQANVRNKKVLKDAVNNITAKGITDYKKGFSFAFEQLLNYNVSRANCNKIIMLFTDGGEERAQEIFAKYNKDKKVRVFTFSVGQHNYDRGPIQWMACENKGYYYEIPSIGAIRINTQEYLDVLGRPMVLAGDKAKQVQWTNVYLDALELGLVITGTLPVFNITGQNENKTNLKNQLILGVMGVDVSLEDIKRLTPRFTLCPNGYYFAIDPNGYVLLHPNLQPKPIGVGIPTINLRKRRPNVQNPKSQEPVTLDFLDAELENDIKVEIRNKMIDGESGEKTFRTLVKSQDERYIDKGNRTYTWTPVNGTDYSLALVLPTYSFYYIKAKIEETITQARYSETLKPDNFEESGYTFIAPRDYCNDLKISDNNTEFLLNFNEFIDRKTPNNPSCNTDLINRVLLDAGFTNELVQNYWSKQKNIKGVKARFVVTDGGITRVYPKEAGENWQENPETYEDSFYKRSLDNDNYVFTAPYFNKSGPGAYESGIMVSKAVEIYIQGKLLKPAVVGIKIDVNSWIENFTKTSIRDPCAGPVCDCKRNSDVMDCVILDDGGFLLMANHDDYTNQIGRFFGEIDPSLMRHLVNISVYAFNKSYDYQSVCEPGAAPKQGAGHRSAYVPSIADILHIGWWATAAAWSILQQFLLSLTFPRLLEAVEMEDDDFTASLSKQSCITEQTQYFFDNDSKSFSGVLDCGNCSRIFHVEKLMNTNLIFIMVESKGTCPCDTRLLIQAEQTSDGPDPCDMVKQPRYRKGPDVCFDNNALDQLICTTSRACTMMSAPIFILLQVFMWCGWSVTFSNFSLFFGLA

What is called IC50 is the midpoint of a concentration-inhibition curve. Take `NCC1(CC(=O)O)CC2CCC1C2` (racemic) [Compound 5]: the IC50 turned out to be 103 nM.

Take `NCC1(CC(=O)O)C2CCCC1CCC2` (centres unmarked) [Compound 3]: the IC50 amounted to 47 nM.
